Data: PubChem BioAssay AID330 (DTP/NCI, 2004)
Where “and” joins values, the source holds several entries; their conditions need not be identical. Equal values may be shown once. Toxic doses and inconclusive results are not listed.

System: P388 leukemia ip, CD2F1 mice, survival T/C
Experiment: NCI In Vivo Anticancer Drug Screen. Data for tumor model P388 Leukemia (intraperitoneal) in CD2F1 (CDF1) mice
Settings: endpoint: median survival time, higher = longer survival
Outline: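 Mice carrying the transplanted tumor received test compound or vehicle. Survival was recorded in each group, and the value is the treated-group measurement divided by that of the vehicle-treated control group.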

[1] = dose: 50.0 mg/kg/injection, schedule: Q01DX005 (ip), vehicle: Klucel (hydroxypropylcellulose) (HPC)
[2] = dose: 6.25 mg/kg/injection, schedule: Q01DX009 (ip), vehicle: other
[3] = dose: 12.5 mg/kg/injection, schedule: Q01DX009 (ip), vehicle: other
[4] = dose: 25.0 mg/kg/injection, schedule: Q01DX009 (ip), vehicle: other
[5] = dose: 50.0 mg/kg/injection, schedule: Q01DX009 (ip), vehicle: other
[6] = dose: 12.5 mg/kg/injection, schedule: Q01DX009 (ip), vehicle: Klucel (hydroxypropylcellulose) (HPC)
[7] = dose: 25.0 mg/kg/injection, schedule: Q01DX009 (ip), vehicle: Klucel (hydroxypropylcellulose) (HPC)
[8] = dose: 50.0 mg/kg/injection, schedule: Q01DX009 (ip), vehicle: Klucel (hydroxypropylcellulose) (HPC)
[9] = dose: 100.0 mg/kg/injection, schedule: Q01DX009 (ip), vehicle: Klucel (hydroxypropylcellulose) (HPC)
[10] = dose: 25.0 mg/kg/injection, schedule: Q01DX005 (ip), vehicle: Klucel (hydroxypropylcellulose) (HPC)
[11] = dose: 50.0 mg/kg/injection, schedule: Q01DX005 (ip), vehicle: saline with Tween-80
[12] = dose: 50.0 mg/kg/injection, schedule: Q01DX009 (ip), vehicle: saline
[13] = dose: 100.0 mg/kg/injection, schedule: Q01DX009 (ip), vehicle: saline
[14] = dose: 200.0 mg/kg/injection, schedule: Q01DX009 (ip), vehicle: saline

Structure (SMILES): COc1cccc2c1C(=O)c1c(O)c3c(c(O)c1C2=O)CC(O)(c1csc(-c2ccccc2)n1)CC3O (centres undefined)
- T/C (dose: 1.56 mg/kg/injection, schedule: Q01DX009 (ip), vehicle: water): 106 % of control
- T/C (dose: 3.13 mg/kg/injection, schedule: Q01DX009 (ip), vehicle: water): 100 % of control
- T/C (dose: 6.25 mg/kg/injection, schedule: Q01DX009 (ip), vehicle: water): 109 % of control
- T/C (dose: 12.5 mg/kg/injection, schedule: Q01DX009 (ip), vehicle: water): 109 % of control
- T/C (dose: 25.0 mg/kg/injection, schedule: Q01DX009 (ip), vehicle: water): 103 % of control
- T/C (dose: 50.0 mg/kg/injection, schedule: Q01DX009 (ip), vehicle: water): 108 % of control

Structure (SMILES): CN=C(NCCCOC)c1ccc(NC(=O)Nc2ccc(NC(=O)Nc3ccc(C(=NC)NCCCOC)cc3)cc2)cc1
- T/C [1]: 150 % of control

Structure (SMILES): Cc1[nH]c(=O)[nH]c(=O)c1/C=C/C(=O)NC(CO)CSCc1ccccc1 (centres undefined)
- T/C [2]: 94 % of control
- T/C [3]: 94 % of control
- T/C [4]: 94 % of control
- T/C [5]: 88 % of control
- T/C (dose: 100.0 mg/kg/injection, schedule: Q01DX009 (ip), vehicle: other): 87 % of control
- T/C (dose: 200.0 mg/kg/injection, schedule: Q01DX009 (ip), vehicle: other): 98 % of control
- T/C (dose: 400.0 mg/kg/injection, schedule: Q01DX009 (ip), vehicle: other): 95 % of control

Structure (SMILES): CCOC(=O)N(NC(=O)c1ccc(N(CCCl)CCCl)cc1)C(C)=O
- T/C (dose: 3.13 mg/kg/injection, schedule: Q01DX009 (ip), vehicle: other): 103 % of control
- T/C [2]: 100 % of control
- T/C [3]: 101 % of control
- T/C [4]: 111 % of control
- T/C [5]: 111 % of control and 114 % of control
- T/C (dose: 88.0 mg/kg/injection, schedule: Q01DX009 (ip), vehicle: other): 110 % of control
- T/C (dose: 133.0 mg/kg/injection, schedule: Q01DX009 (ip), vehicle: other): 112 % of control

Structure (SMILES): Cc1cc(OCc2nnc3n2S(=O)(=O)c2ccccc2N3c2ccccc2)ccc1Cl
- T/C (dose: 100.0 mg/kg/injection, schedule: Q04DX002 (ip), vehicle: saline with Tween-80): 92 % of control
- T/C (dose: 200.0 mg/kg/injection, schedule: Q04DX002 (ip), vehicle: saline with Tween-80): 92 % of control
- T/C (dose: 400.0 mg/kg/injection, schedule: Q04DX002 (ip), vehicle: saline with Tween-80): 87 % of control

Structure (SMILES): Cc1ccc(S(=O)(=O)N/N=C2\C(=N\NS(=O)(=O)c3ccc(C)cc3)C3c4ccccc4C2c2ccccc23)cc1
- T/C (dose: 60.0 mg/kg/injection, schedule: Q01DX005 (ip), vehicle: saline with Tween-80): 105 % of control
- T/C (dose: 120.0 mg/kg/injection, schedule: Q01DX005 (ip), vehicle: saline with Tween-80): 96 % of control
- T/C (dose: 240.0 mg/kg/injection, schedule: Q01DX005 (ip), vehicle: saline with Tween-80): 95 % of control

Structure (SMILES): [Cl][Pt+2][Cl].[NH-]c1ccc2[nH]c(=S)sc2c1.[NH-]c1ccc2[nH]c(=S)sc2c1
- T/C (dose: 100.0 mg/kg/injection, schedule: Q01DX001 (sc), vehicle: olive oil, sesame oil, peanut oil): 104 % of control
- T/C (dose: 200.0 mg/kg/injection, schedule: Q01DX001 (sc), vehicle: olive oil, sesame oil, peanut oil): 114 % of control
- T/C (dose: 400.0 mg/kg/injection, schedule: Q01DX001 (sc), vehicle: olive oil, sesame oil, peanut oil): 104 % of control

Structure (SMILES): O=C1CCCC1C(=O)c1ccccc1.O=C1CCCC1C(=O)c1ccccc1.[Cu] (centres undefined)
- T/C [6]: 103 % of control
- T/C [7]: 100 % of control
- T/C [8]: 100 % of control and 109 % of control
- T/C [9]: 116 % of control

Structure (SMILES): CCOC(=O)C(C(=O)OCC)c1ccccn1
- T/C (dose: 50.0 mg/kg/injection, schedule: Q01DX009 (ip), vehicle: saline with Tween-80): 98 % of control
- T/C (dose: 100.0 mg/kg/injection, schedule: Q01DX009 (ip), vehicle: saline with Tween-80): 107 % of control
- T/C (dose: 200.0 mg/kg/injection, schedule: Q01DX009 (ip), vehicle: saline with Tween-80): 108 % of control

Structure (SMILES): CCOc1ccc(/C=C/c2ccc3ccccc3[n+]2C)cc1OCC
- T/C (dose: 0.78 mg/kg/injection, schedule: Q01DX009 (ip), vehicle: saline with Tween-80): 102 % of control
- T/C (dose: 1.56 mg/kg/injection, schedule: Q01DX009 (ip), vehicle: saline with Tween-80): 111 % of control

Structure (SMILES): COC1OC(COC(C)=O)C(N(C)C(C)=O)C1OC(C)=O (centres undefined)
- T/C (dose: 60.0 mg/kg/injection, schedule: Q01DX005 (ip), vehicle: saline): 103 % of control
- T/C (dose: 120.0 mg/kg/injection, schedule: Q01DX005 (ip), vehicle: saline): 96 % of control
- T/C (dose: 240.0 mg/kg/injection, schedule: Q01DX005 (ip), vehicle: saline): 104 % of control

Structure (SMILES): CCN(Cc1ccc(Cl)c(Cl)c1)c1ccc2nc(N)nc(N)c2c1C
- T/C (dose: 6.25 mg/kg/injection, schedule: Q01DX009 (ip), vehicle: Klucel (hydroxypropylcellulose) (HPC)): 121 % of control
- T/C [6]: 116 % of control
- T/C (dose: 12.5 mg/kg/injection, schedule: Q04DX003 (ip), vehicle: water): 116 % of control and 91 % of control
- T/C [7]: 114 % of control
- T/C (dose: 25.0 mg/kg/injection, schedule: Q04DX003 (ip), vehicle: water): 114 % of control and 122 % of control
- T/C (dose: 50.0 mg/kg/injection, schedule: Q04DX003 (ip), vehicle: water): 155 % of control
- T/C (dose: 100.0 mg/kg/injection, schedule: Q04DX003 (ip), vehicle: water): 117 % of control and 90 % of control

Structure (SMILES): COc1cc2c(cc1O)c(O)cc1c3cc(OC)c(OC)cc3c[n+](C)c21
- T/C [10]: 152 % of control
- T/C [1]: 153 % of control and 160 % of control
- T/C (dose: 200.0 mg/kg/injection, schedule: Q01DX005 (ip), vehicle: Klucel (hydroxypropylcellulose) (HPC)): 156 % of control and 159 % of control

Structure (SMILES): CC(C)(C)OC(=O)NC(CC(Cc1ccccc1)C(=O)O)C(=O)NC(CC(Cc1ccccc1)C(=O)O)C(=O)NC(CC(Cc1ccccc1)C(=O)O)C(=O)NCC(=O)Oc1ccc([N+](=O)[O-])cc1 (centres undefined)
- T/C (dose: 12.5 mg/kg/injection, schedule: Q01DX005 (ip), vehicle: saline with Tween-80): 99 % of control
- T/C (dose: 25.0 mg/kg/injection, schedule: Q01DX005 (ip), vehicle: saline with Tween-80): 91 % of control
- T/C [11]: 89 % of control

Structure (SMILES): CC(=O)OCCC/C(=C/c1cc2ccccc2c2ccccc12)[N+](=O)[O-]
- T/C (dose: 100.0 mg/kg/injection, schedule: Q04DX003 (ip), vehicle: Klucel (hydroxypropylcellulose) (HPC)): 104 % of control
- T/C (dose: 200.0 mg/kg/injection, schedule: Q04DX003 (ip), vehicle: Klucel (hydroxypropylcellulose) (HPC)): 109 % of control
- T/C (dose: 400.0 mg/kg/injection, schedule: Q04DX003 (ip), vehicle: Klucel (hydroxypropylcellulose) (HPC)): 109 % of control

Structure (SMILES): CC(N)C(=O)NC(C(=O)O)C(C)O (centres undefined)
- T/C (dose: 25.0 mg/kg/injection, schedule: Q01DX009 (ip), vehicle: saline): 100 % of control
- T/C [12]: 102 % of control
- T/C [13]: 100 % of control
- T/C [14]: 99 % of control
- T/C (dose: 400.0 mg/kg/injection, schedule: Q01DX009 (ip), vehicle: saline): 102 % of control

Structure (SMILES): CCCCOc1ccc(Nc2c(C(=O)OCC)cnc3cc4c(cc23)OCO4)cc1
- T/C (dose: 60.0 mg/kg/injection, schedule: Q01DX005 (ip), vehicle: Klucel (hydroxypropylcellulose) (HPC)): 97 % of control
- T/C (dose: 120.0 mg/kg/injection, schedule: Q01DX005 (ip), vehicle: Klucel (hydroxypropylcellulose) (HPC)): 95 % of control
- T/C (dose: 240.0 mg/kg/injection, schedule: Q01DX005 (ip), vehicle: Klucel (hydroxypropylcellulose) (HPC)): 97 % of control

Structure (SMILES): O=C1c2ccccc2C(=O)c2c1c(Cl)cc1c(=O)c3cc(Cl)cc(Cl)c3[nH]c21
- T/C [11]: 99 % of control
- T/C (dose: 100.0 mg/kg/injection, schedule: Q01DX005 (ip), vehicle: saline with Tween-80): 95 % of control
- T/C (dose: 200.0 mg/kg/injection, schedule: Q01DX005 (ip), vehicle: saline with Tween-80): 92 % of control

Structure (SMILES): CC(=O)CCCCCCCCCCCCCCC1=C(C)C(=O)OC1=O
- T/C [10]: 103 % of control
- T/C [1]: 99 % of control
- T/C (dose: 100.0 mg/kg/injection, schedule: Q01DX005 (ip), vehicle: Klucel (hydroxypropylcellulose) (HPC)): 89 % of control
- T/C (dose: 400.0 mg/kg/injection, schedule: Q01DX005 (ip), vehicle: Klucel (hydroxypropylcellulose) (HPC)): 96 % of control

Structure (SMILES): Clc1ccc(-c2nc(CSc3ccccn3)cs2)cc1
- T/C [12]: 102 % of control
- T/C [13]: 109 % of control
- T/C [14]: 105 % of control

Structure (SMILES): CCn1c(=O)c2[nH]c(=S)[nH]c2n(C2CC2)c1=O
- T/C [8]: 97 % of control
- T/C [9]: 101 % of control
- T/C (dose: 200.0 mg/kg/injection, schedule: Q01DX009 (ip), vehicle: Klucel (hydroxypropylcellulose) (HPC)): 113 % of control
